PMC3237634 (Bioorganic & medicinal chemistry letters, 2011)
Where two headings read alike, the source gives them in different places.

What was measured:
hPEPT1 [1] = target: T1, hPEPT1 (Homo sapiens, UniProt P46059); assay type: cell-based; details: for affinity for hPEPT1 compared to the lead promoiety H-Phe-Ser-Ala-OH: statistical comparison, N = 3
T1 sequence (P46059 1-708): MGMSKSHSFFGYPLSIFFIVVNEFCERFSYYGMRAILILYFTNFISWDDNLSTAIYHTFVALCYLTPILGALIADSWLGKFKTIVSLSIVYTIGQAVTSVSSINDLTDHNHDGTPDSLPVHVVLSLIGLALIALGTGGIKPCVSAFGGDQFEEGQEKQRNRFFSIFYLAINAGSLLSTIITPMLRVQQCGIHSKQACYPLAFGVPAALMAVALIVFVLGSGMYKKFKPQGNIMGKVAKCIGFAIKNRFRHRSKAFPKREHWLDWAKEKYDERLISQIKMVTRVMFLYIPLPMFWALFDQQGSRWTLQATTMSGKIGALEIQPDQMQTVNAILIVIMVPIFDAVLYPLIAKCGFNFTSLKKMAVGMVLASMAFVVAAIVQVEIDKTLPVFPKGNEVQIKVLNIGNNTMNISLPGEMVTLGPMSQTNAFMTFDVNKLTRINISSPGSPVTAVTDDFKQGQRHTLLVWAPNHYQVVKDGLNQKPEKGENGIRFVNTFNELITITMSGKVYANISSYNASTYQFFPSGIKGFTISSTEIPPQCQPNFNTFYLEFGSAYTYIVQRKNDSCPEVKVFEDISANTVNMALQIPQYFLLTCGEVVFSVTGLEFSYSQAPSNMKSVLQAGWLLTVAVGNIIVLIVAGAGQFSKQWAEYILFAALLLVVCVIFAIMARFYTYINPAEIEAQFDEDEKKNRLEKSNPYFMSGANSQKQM

hPEPT1 [2] = target: T1, hPEPT1; details: investigation of 55 tripeptides; cited from earlier work
hPEPT1 [3] = target: T1, hPEPT1; details: value obtained by refitting data presented in Thorn et al.; cited from earlier work

Compound	affinity for hPEPT1 compared to the lead promoiety H-Phe-Ser-Ala-OH (hPEPT1 [1])	interaction with hPEPT1 in translocation study (hPEPT1 [2])	further results
C[C@H](NC(=O)[C@H](COC(=O)c1ccccc1)CC(=O)[C@@H](N)Cc1ccccc1)C(=O)O.O=C(O)C(F)(F)F [Compound 14A, H-Phe-ψ[COCH2]Ser(Bz)-Ala-OH]	did not have significantly different affinities		
CCC[C@H](NC(=O)[C@H](COC(=O)c1ccccc1)CC(=O)[C@@H](N)Cc1ccccc1)C(=O)O.O=C(O)C(F)(F)F [Compound 14B, H-Phe-ψ[COCH2]Ser(Bz)-Nva-OH]	did not have significantly different affinities		
N[C@@H](Cc1ccccc1)C(=O)C[C@@H](COC(=O)c1ccccc1)C(=O)N[C@H](C(=O)O)C1CCCCC1.O=C(O)C(F)(F)F [Compound 14C, H-Phe-ψ[COCH2]Ser(Bz)-Chg-OH]	significantly higher affinity		Ki (hPEPT1 [1]): 50 µM
Asp-Ile-Arg		not recognized by hPEPT1	
H-Phe-Ser-Ala-OH			Ki (hPEPT1 [3]): 260 µM
Met-Pro-Pro		inhibitor	
